Results reported in the NIST ThermoML archive (doi:10.1016/j.fluid.2010.05.009).
± gives the expanded uncertainty stated by the source.

Legend:
[1] = 298.15 K; 101.33 kPa; Liquid; Vibrating tube method
[2] = refractive index (Na D-line) (dimensionless); settings: 298.15 K; 101.33 kPa; Liquid; Standard Abbe refractometry

mass density [1]: 1219.61 ± 0.41 kg/m3
refractive index [2]: 1.50591 ± 0.00038
SMILES: CCOS(=O)(=O)[O-].CC[n+]1cccc(C)c1 [1-ethyl-3-methylpyridinium ethylsulfate]
